Measured values: ChEMBL document CHEMBL5260847, “Current scenario of indole derivatives with potential anti-drug-resistant cancer activity” (Eur J Med Chem, 2020)
Each block holds one molecule with its values, some of them ahead of it.

Experiments:
K562 [1] = experiment: Antiproliferative activity against human K562 cells assessed as reduction in cell growth measured after 24 hrs by CCK-8 assay; assay type: functional, cell-based; details: K562, 24 h
K562/Adr = experiment: Cytotoxicity activity against doxorubicin-resistant human K562/Adr cells assessed as reduction in cell viability measured after 72 hrs by CCK-8 assay; assay type: functional, cell-based
K562 [2] = experiment: Cytotoxicity activity against […] human K562 cells assessed as reduction in cell viability measured after 72 hrs by CCK-8 assay; assay type: functional, cell-based; details: K562, 72 h
LNCaP = experiment: Cytotoxicity activity against human LNCaP cells assessed as reduction in cell viability; assay type: functional, cell-based
HT-29 [3] = experiment: Cytotoxicity activity against human HT-29 cells assessed as reduction in cell viability by SRB assay; assay type: functional, cell-based
A549 [4] = experiment: Cytotoxicity activity against human A549 cells assessed as reduction in cell viability by SRB assay; assay type: functional, cell-based
A549 [5] = experiment: Antiproliferative activity against multi-drug resistant human A549 cells assessed as reduction in cell viability; assay type: functional, cell-based
[6] = Antiproliferative activity against human KB-VIN cells assessed as reduction in cell viability measured after 72 hrs by SRB assay; assay type: functional, cell-based; details: KBVIN
MCF7 = experiment: Antiproliferative activity against human MCF7 cells assessed as inhibition of cell proliferation incubated for 72 hrs by MTT assay; assay type: functional, cell-based; details: MCF7, 72 h
A549 [7] = experiment: Antiproliferative activity against human A549 cells assessed as inhibition of cell growth measured after 72 hrs by SRB assay; assay type: functional, cell-based; details: A549, 72 h
KB = experiment: Antiproliferative activity against human KB cells assessed as reduction in cell growth incubated for 2 days by MTT assay; assay type: functional, cell-based; details: 48 h
HepG2 = experiment: Anticancer activity against human HepG2 cells assessed as inhibition of cell growth; assay type: functional, cell-based
K562/A02 = experiment: Antiproliferative activity against human K562/A02 cells assessed as reduction in cell viability measured after 2 days by MTT assay; assay type: functional, cell-based; details: K562/A02, 48 h
HeLa = experiment: Anticancer activity against human HeLa cells assessed as inhibition of cell growth; assay type: functional, cell-based
HCT-116 = experiment: Antiproliferative activity against multi-drug - resistant human HCT-116 cells assessed as reduction in cell viability; assay type: functional, cell-based
HCT-15 = experiment: Antiproliferative activity against multidrug-resistant human HCT-15 cells assessed as reduction in cell viability; assay type: functional, cell-based
CCRF-CEM = experiment: Cytotoxicity against drug-sensitive human CCRF-CEM cells assessed as reduction in cell viability measured after 72 hrs by MTT assay; assay type: functional, cell-based
NCI-H1975 = experiment: Antitumor activity in human NCI-H1975 cells xenografted Sprague-Dawley mouse at 40 mg/kg assessed as tumor growth inhibition administered for 5 days; assay type: functional; design: scale not given: the % may be the effect or the level left; details: time 5 day
PC-9 = experiment: Antitumor activity in gefitinib-resistant human PC-9 cells xenografted Sprague-Dawley mouse at 40 mg/kg assessed as tumor growth inhibition administered for 5 days; assay type: functional; design: scale not given: the % may be the effect or the level left; details: time 5 day
NCI-H460 = experiment: Antitumor activity in human NCI-H460 cells xenografted […] mouse at 40 mg/kg assessed as tumor growth inhibition; assay type: functional; design: scale not given: the % may be the effect or the level left
NCI-H1650 [8] = experiment: Cytotoxicity activity against drug-sensitive human NCI-H1650 cells assessed as reduction in cell viability measured after 72 hrs by MTT assay; assay type: functional, cell-based; details: NCI-H1650, 72 h
NCI-H1650 [9] = experiment: Antitumor activity in human NCI-H1650 cells xenografted Sprague-Dawley mouse at 40 mg/kg assessed as tumor growth inhibition administered for 5 days; assay type: functional; design: scale not given: the % may be the effect or the level left; details: time 5 day
HT-29 [10] = experiment: Cytotoxicity activity against human HT-29 cells assessed as reduction in cell growth measured after 72 hrs by MTT assay; assay type: functional, cell-based; details: HT-29, 72 h
K562 [11] = experiment: Cytotoxicity against human K562 cells assessed as reduction in cell viability incubated for 72 hrs by MTT assay; assay type: functional, cell-based; details: K562, 72 h
[12] = Cytotoxicity activity against human U87MG.deltaEGFR cells assessed as reduction in cell viability incubated for 72 hrs by MTT assay; assay type: functional, cell-based
PC-3 = experiment: Cytotoxicity activity against human PC-3 cells assessed as reduction in cell viability by MTT assay; assay type: functional, cell-based

IC50 (K562 [1]): 43 nM
Structure (SMILES): COc1cc([C@@H]2c3cc4c(cc3[C@H](OC(=O)c3ccc5cc[nH]c5c3)[C@H]3COC(=O)[C@H]23)OCO4)cc(OC)c1OC
IC50 (K562/Adr): 245 nM | IC50 (K562 [2]): 19 nM

Structure (SMILES): CC[C@]1(O)C[C@H]2CN(CCc3c([nH]c4ccccc34)[C@@](C(=O)OC)(c3cc4c(cc3OC)N(C=O)[C@H]3[C@@](O)(C(=O)OC)[C@H](OC(C)=O)[C@]5(CC)C=CCN6CC[C@]43[C@@H]65)C2)C1 [VINCRISTINE]
IC50 (LNCaP): 2600 nM

Structure (SMILES): C/C=C1\CN(C)[C@H]2Cc3c([nH]c4ccccc34)[C@@H](c3ccc4[nH]c5c(c4c3OC)CCN3C[C@H]4CC[C@H]5[C@H]3[C@@H]4CC)C[C@H]1[C@@H]2C(=O)OC
IC50 (HT-29 [3]): 930 nM | IC50 (A549 [4]): 6800 nM

IC50 (A549 [5]): 76900 nM
Structure (SMILES): CCOC(=O)c1c(-c2ccc(F)cc2)oc2ccc(OCCCCCCN3C(=O)C(=O)c4cc(OC)ccc43)cc12

IC50 (A549 [5]): 47600 nM
Structure (SMILES): CCOC(=O)c1c(-c2ccccc2)oc2ccc(OCCCCCCN3C(=O)C(=O)c4ccccc43)cc12

IC50 (MCF7): 12900 nM | IC50 (A549 [7]): 3100 nM
Structure (SMILES): CC[C@@H]1C[C@@H]2CN3CCc4c([nH]c5c([C@H]6CC7[C@]8(O[C@@H]8C)[C@@H]8OC[C@@]7(C(=O)OC)[C@H](Cc7c6[nH]c6ccccc76)N8C)c(OC)ccc45)[C@@](C(=O)OC)(C2)[C@@H]13
IC50 [6]: 2600 nM | IC50 (A549 [4]): 4800 nM

IC50 (KB): 1020 nM | IC50 (HepG2): 6940 nM | IC50 (K562/A02): 10600 nM | IC50 (HeLa): > 50000 nM
Structure (SMILES): COc1cc([C@@H]2c3cc4c(cc3[C@@H](O[C@@H]3O[C@@H]5CO[C@@H](C)O[C@H]5[C@H](O)[C@H]3O)[C@H]3COC(=O)[C@H]23)OCO4)cc(OC)c1O [ETOPOSIDE]

Structure (SMILES): C/C=C1/CN2[C@H]3C[C@@H]1C(CO)[C@@H]2Cc1c3n(C)c2cc(C[C@H]3[C@@H]4C[C@H]5c6c(c7ccccc7n6C)C[C@@H]([C@@H]4CO[C@]3(C)OC)N5C)c(OC)cc12 (stereo not given in full)
IC50 (HT-29 [3]): 20 nM

IC50 (HCT-116): 2060 nM | IC50 (HCT-15): 690 nM
Structure (SMILES): [O-][n+]1onc2c3cc[nH]c3ccc21

Structure (SMILES): CCc1c(CO)c(CO)c2n1Cc1c(c3ccccc3n1C)C2
IC50 (CCRF-CEM): 410 nM | Activity (NCI-H1975): 26% | Activity (PC-9): 73% | Activity (NCI-H460): 65% | IC50 (NCI-H1650 [8]): 3500 nM | Activity (NCI-H1650 [9]): 30%

Structure (SMILES): COc1cccc2c1C(=O)c1c(O)c3c(c(O)c1C2=O)C[C@@](O)(C(=O)CO)C[C@@H]3O[C@H]1C[C@H](N)[C@H](O)[C@H](C)O1 [DOXORUBICIN]
IC50 (HT-29 [10]): 1480 nM | IC50 (K562 [11]): > 168000 nM

Structure (SMILES): COC(=O)[C@H]1[C@H]2C[C@@H]3c4[nH]c5cc(OC)ccc5c4CCN3C[C@H]2C[C@@H](OC(=O)c2cc(OC)c(OC)c(OC)c2)[C@@H]1OC [RESERPINE]
IC50 [12]: 9150 nM

Structure (SMILES): C/C=C1\CN2CC[C@@]34c5c(ccc6c5OC5OC[C@@H]7[C@@H](C[C@H]8c9c(c%10ccccc%10n9C)C[C@@H]7N8C)[C@@H]5[C@@H]6C)N(C)[C@H]3[C@@H]2C[C@H]1[C@@H]4C(=O)OC (stereo not given in full)
IC50 (PC-3): 7200 nM | IC50 (HT-29 [3]): 300 nM
